Legend:
[1] = system: DNMT1; assay: Western blotting of BW5147.G.1.4 lysates, DNMT1; assay type: cell-based, mouse; details: 48 hours, as the concentration of decitabine increased, FIG. 8
Procedure: After 48 hours, the cell was lysated and interferon signaling and PD markers were analyzed by Western blotting, as shown in FIG. 8.

[2] = system: RIPK3; assay: RIPK3 expression by western blot after decitabine treatment, Karpas-299 cells; assay type: cell-based, human; details: 0.01, 0.1, 1 μM decitabine for 4 days, FIG. 2
[3] = system: RIPK3; assay: RIPK3 western blotting of KARPAS-299 xenograft cell lysates; assay type: in vivo, mouse; details: five days treatment, FIG. 13
[4] = system: H9 cells; assay: IFNγ release, electrochemiluminescence immunoassay (Meso Scale Discovery); assay type: cell-based, human; details: decitabine alone 0.001-10 μM for 48 hours; FIG. 4
Procedure: Human T-cell lymphoma (H9) cell line was treated with decitabine (DAC) (0.001, 0.003, 0.01, 0.03, 0.1, 0.3, 1, 3 and 10 μM) for 48 hours, and the release of IFNγ was measured an electrochemiluminescence immunoassay (Meso Scale Discovery). […] Thus, the treatment by decitabine will potentially result in improved response rate to the tolinapant treatment.

[5] = system: RIPK3 gene promoter; assay: Methylation status of RIPK3 gene by pyrosequencing (EpigenDX); assay type: cell-based, human; details: H9, Karpas-299, Sup-M2, Sup-T1 cell lines; 0.01, 0.1, 1 μM decitabine for 4 days; FIG. 3 B and C
Procedure: The DNA of human H9, Karpas-299, Sup-M2 (from DSMZ), and Sup-T1 (from ECACC) cell lines were sequenced to identify methylation status of the RIPK3 gene by pyrosequencing (EpigenDX). […] These cell lines were treated with 0.01, 0.1, and 1 μM decitabine (DAC) for 4 days, and DNA of the cells were sequenced to identify methylation status of the RIPK3 gene by pyrosequencing (EpigenDX).

[6] = system: RIPK3; assay: RIPK3 expression by western blot after decitabine treatment, CT26 cells; assay type: cell-based, mouse; details: 0.01, 0.1, 1 μM decitabine for 2 days, FIG. 2
Procedure: Two types of mouse cell lines (BW5147.G.1.4, a T cell lymphoma from DSMZ (Braunschweig, Germany) and CT26) were treated with 0.01, 0.1, 1 μM or no decitabine (DAC) for 2 days.

[7] = system: KARPAS-299 xenograft mouse model; assay: Gene expression changes in KARPAS-299 xenografts; assay type: in vivo; details: treated for five days, FIG. 12
Procedure: KARPAS-299 xenograft mouse model was prepared by injecting KARPAS-299 cells. The mice bearing the KARPAS-299 xenografts were treated with decitabine (DAC) and/or tolinapant for five days. The tumor cells were collected and analyzed for gene expression changes (FIG. 12).

[8] = system: LINE-1; assay: Methylation level of LINE-1 after decitabine treatment; assay type: cell-based, human; details: 0.01, 0.1, 1 μM decitabine for 4 days; FIG. 3 D
[9] = system: clAP1; assay: Western blotting of BW5147.G.1.4 lysates, clAP1; assay type: cell-based, mouse; details: 48 hours, when tolinapant was added to decitabine, FIG. 8
Procedure: After 48 hours, the cell was lysated and interferon signaling and PD markers were analyzed by Western blotting, as shown in FIG. 8. From the western blot, it was confirmed that the expression of DNMT1 was reduced as the concentration of decitabine increased, and the expression of clAP1 was suppressed when tolinapant was added.

[10] = system: CT26 cells; assay: Lytic cell death by real-time microscopy (IncuCyte) in CT26 control and RIPK3 re-expressed CT26 cells; assay type: cell-based, mouse; details: 1 μM tolinapant; RIPK3 re-expressed CT26 cells versus CT26 control cells; FIG. 1B
Procedure: CRISPR activation (CRISPRa) was used to re-express RIPK3 in the CT26 line (from ATCC) (FIG. 1A). […] The lytic cell death upon treatment of tolinapant was measured for the CT26 control cells and the RIPK3 re-expressed CT26 cells, by real-time microscopy (IncuCyte) assays (FIG. 1B).

Structure (SMILES) | expression of DNMT1 [1] | RIPK3 expression [2] | RIPK3 re-expression by western blotting [3] | IFNγ released from H9 cells [4] | methylation of RIPK3 gene promoter [5] | RIPK3 expression [6] | gene expression changes in tumor cells [7] | methylation of LINE-1 [8] | expression of clAP1 [9] | lytic cell death upon treatment of tolinapant [10]
Nc1ncn([C@H]2C[C@H](O)[C@@H](CO)O2)c(=O)n1 [decitabine, 5-aza-2′-deoxycytidine] | reduced | RIPK3 expression was detected | re-expression of RIPK3 was also confirmed | increased | demethylation of RIPK3 gene promoter | RIPK3 expression was detected | upregulation of interferons, and other cytokines/chemokines and cancer testis antigens | demethylation of LINE-1 | – | –
C[C@@H]1CN(CC(=O)N2CC(C)(C)c3nc(CO)c(Cc4ccc(F)cc4)cc32)[C@@H](CN2CCOC[C@H]2C)CN1 [tolinapant, 1-(6-(4-fluorobenzyl)-5-(hydroxymethyl)-3,3-dimethyl-2,3-dihydro-1H-pyrrolo[3,2-b]pyridin-1-yl)-2-((2R,5R)-5-methyl-2-(((R)-3-methylmorpholino)methyl)piperazin-1-yl)ethan-1-one] | – | – | – | – | – | – | – | – | suppressed | higher lytic cell death
